Results filed as inconclusive are left out. Calls of active or inactive are those of the source.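 Rule for the calls: active = Compounds that reduce signal, with fitted half-maximal dose at or under twice the top valid tested dose; inconclusive = Poor fit, or flat curve losing 30 to 70% of signal; inactive = Potency past limit, flat within 30%, or opposite direction.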
experiment: HEK293T cell cytotoxicity, dose response, cytotoxicity control, ATP luminescence, cherry-pick samples (AID 687005); settings: HEK293T viability, ATP luminescence (CellTiter-Glo), 48 h; at 26 µM (top of the series)

**Q.** Which activity change, negative = cytotoxicity does the source give for O=C(NC(=S)Nc1ccccc1N1CCOCC1)c1ccccc1F here?
**A.** -0.484% (inactive)

**Q.** For CO[C@H]1CN(C)C(=O)c2cc(NS(=O)(=O)CC(F)(F)F)ccc2OC[C@H](C)N(Cc2cccnc2)C[C@@H]1C, which activity change, negative = cytotoxicity is on record?
**A.** 20.5% (inactive)

**Q.** For C[C@@H]1CN([C@H](C)CO)C(=O)c2cc(NC(=O)Nc3cccc4ccccc34)ccc2O[C@@H](C)CCCCO[C@@H]1CN(C)Cc1ccc2c(c1)OCO2, which activity change, negative = cytotoxicity is on record?
**A.** -13.2% (inactive)

**Q.** With Cc1ccccc1NC(=O)C(NC1CCCCC1)C(C)C (stereo not drawn) as the compound, how does the activity change, negative = cytotoxicity read?
**A.** -12.2% (inactive)

**Q.** With COc1cccc(-c2cn(CC[C@@H]3CC[C@@H](NC(C)=O)[C@H](CO)O3)nn2)c1 as the compound, how does the activity change, negative = cytotoxicity read?
**A.** 53.3% (inactive)

**Q.** For Cc1noc(C)c1S(=O)(=O)Nc1ccc2c(c1)C(=O)N([C@H](C)CO)C[C@@H](C)[C@H](CN(C)Cc1ccccc1)OCCCC[C@H](C)O2, which activity change, negative = cytotoxicity is on record?
**A.** -2.05% (inactive)

**Q.** With CN1C(=O)c2cc(NC(=O)NC3CCCC3)ccc2OC[C@H]2O[C@@H](CC(=O)NC3CCC3)CC[C@@H]21 as the compound, how does the activity change, negative = cytotoxicity read?
**A.** 0.295% (inactive)

**Q.** With CCC(C)c1ccc(NC(=S)N2CCN(c3ccccn3)CC2)cc1 (stereo not drawn) as the compound, how does the activity change, negative = cytotoxicity read?
**A.** 13.7% (inactive)

**Q.** Which activity change, negative = cytotoxicity does the source give for COc1cccc(-c2ccc3c(c2)[C@H]2[C@H](CCN2C(=O)Cc2ccncc2)[C@H](CO)N3C)c1 here?
**A.** 125% (inactive)

**Q.** For CC(C)NC(=O)Nc1ccc2c(c1)C(=O)N([C@@H](C)CO)C[C@H](C)[C@@H](CN(C)Cc1ccc3c(c1)OCO3)OCCCC[C@@H](C)O2, which activity change, negative = cytotoxicity is on record?
**A.** -28.1% (inactive)

**Q.** With CO[C@@H]1CN(C)C(=O)c2ccc(NC(=O)C3CC3)cc2OC[C@H](C)N(C(=O)c2ccncc2)C[C@H]1C as the compound, how does the activity change, negative = cytotoxicity read?
**A.** -27.7% (inactive)

**Q.** With C[C@H](CO)N1C[C@H](C)[C@H](CN(C)Cc2ccccc2)Oc2cc(C#Cc3ccccn3)ccc2S1(=O)=O as the compound, how does the activity change, negative = cytotoxicity read?
**A.** -48.6% (inactive)

**Q.** With CC(=O)NNC(=O)CSc1nnc(-c2ccccc2)c(-c2ccccc2)n1 as the compound, how does the activity change, negative = cytotoxicity read?
**A.** -4.35% (inactive)

**Q.** With COc1ccc(C(=O)NC(=S)Nc2ccccc2N2CCOCC2)cc1[N+](=O)[O-] as the compound, how does the activity change, negative = cytotoxicity read?
**A.** -32.3% (inactive)

**Q.** Which activity change, negative = cytotoxicity does the source give for CC(=O)c1cccc(NC(=S)NC2CCCCCCC2)c1 here?
**A.** -21.5% (inactive)

**Q.** With CC1CCCCN1C(=O)CSc1nc(C2CC2)nc2c1cnn2-c1ccccc1 (stereo not drawn) as the compound, how does the activity change, negative = cytotoxicity read?
**A.** 39.5% (inactive)

**Q.** Which activity change, negative = cytotoxicity does the source give for C[C@H]1CN([C@@H](C)CO)C(=O)Cc2cc(NC(=O)Nc3ccccc3)ccc2O[C@H]1CN(C)C(=O)Nc1ccc2c(c1)OCO2 here?
**A.** -2.2% (inactive)

**Q.** For COc1cccc(S(=O)(=O)Nc2ccc3c(c2)[C@H]2C[C@H](CC(=O)NCc4ccccc4F)O[C@@H](CO)[C@H]2O3)c1, which activity change, negative = cytotoxicity is on record?
**A.** 2.6% (inactive)

**Q.** For CC(C)C#Cc1ccc([C@@H]2[C@H](CO)N3CCCCN(C(=O)c4ccc5c(c4)OCO5)C[C@@H]23)cc1, which activity change, negative = cytotoxicity is on record?
**A.** 28.2% (inactive)

**Q.** With Cc1noc(C)c1S(=O)(=O)Nc1ccc2c(c1)C(=O)N([C@@H](C)CO)C[C@@H](C)[C@@H](CN(C)Cc1ccccc1)OCCCC[C@H](C)O2 as the compound, how does the activity change, negative = cytotoxicity read?
**A.** -12.2% (inactive)

**Q.** With Cc1noc(C)c1S(=O)(=O)Nc1ccc2c(c1)C(=O)N([C@@H](C)CO)C[C@H](C)[C@@H](CN(C)Cc1ccc3c(c1)OCO3)OCCCC[C@@H](C)O2 as the compound, how does the activity change, negative = cytotoxicity read?
**A.** 45.4% (inactive)

**Q.** With O=C(N[C@H]1CC[C@H](CCn2cc(-c3ccccn3)nn2)O[C@H]1CO)c1ccc(F)cc1 as the compound, how does the activity change, negative = cytotoxicity read?
**A.** -9.35% (inactive)

**Q.** With CO[C@@H]1CN(C)C(=O)c2cc(NC(=O)C3CC3)ccc2OC[C@H](C)N(C(=O)c2ccncc2)C[C@H]1C as the compound, how does the activity change, negative = cytotoxicity read?
**A.** -22.9% (inactive)

**Q.** With COCC#Cc1cnc2c(c1)C(=O)N([C@@H](C)CO)C[C@@H](C)[C@@H](CN(C)C(=O)C1CC1)O2 as the compound, how does the activity change, negative = cytotoxicity read?
**A.** -14.4% (inactive)

**Q.** With O=C(Cc1ccccc1)N[C@H]1C=C[C@@H](CC(=O)N2CCOCC2)O[C@@H]1CO as the compound, how does the activity change, negative = cytotoxicity read?
**A.** -14.2% (inactive)

**Q.** With CCCC#Cc1ccc2c(c1)O[C@@H](CN(C)C)[C@@H](C)CN([C@@H](C)CO)S2(=O)=O as the compound, how does the activity change, negative = cytotoxicity read?
**A.** 13.6% (inactive)

**Q.** For COc1cc(NC(=O)CN2CCN(S(=O)(=O)c3ccc(C(C)C)cc3)CC2)cc(OC)c1, which activity change, negative = cytotoxicity is on record?
**A.** 2.05% (inactive)

**Q.** For COCCNC(=O)C[C@H]1C=C[C@H](NS(=O)(=O)c2ccc(C)cc2)[C@@H](CO)O1, which activity change, negative = cytotoxicity is on record?
**A.** -8.29% (inactive)

**Q.** Which activity change, negative = cytotoxicity does the source give for C/C=C/c1cnc2c(c1)C(=O)N([C@@H](C)CO)C[C@@H](C)[C@@H](CN(C)C(=O)C1CCCCC1)O2 here?
**A.** 10.3% (inactive)

**Q.** With O=C(CN(c1ccc(F)cc1)S(=O)(=O)c1ccccc1)N1CCOCC1 as the compound, how does the activity change, negative = cytotoxicity read?
**A.** -20% (inactive)

same assay, conditions: HEK293T viability, ATP luminescence (CellTiter-Glo), 48 h; at 30 µM (top of the series)

**Q.** For NC(=O)CN(c1ccccc1)S(=O)(=O)c1ccc(F)cc1, which activity change, negative = cytotoxicity is on record?
**A.** -2.68% (inactive)

same assay, conditions: HEK293T viability, ATP luminescence (CellTiter-Glo), 48 h; at 35 µM (top of the series)

**Q.** Which activity change, negative = cytotoxicity does the source give for Cc1cc(C)c(N2CCCC2C(=O)Nc2cccc(C(F)(F)F)c2)c(C)c1 (stereo not drawn) here?
**A.** -7.11% (inactive)

same assay, conditions: HEK293T viability, ATP luminescence (CellTiter-Glo), 48 h; at 42 µM (top of the series)

**Q.** With Cc1ccc(NC(=O)C2(C)CCCN2CC(C)C)cc1C (stereo not drawn) as the compound, how does the activity change, negative = cytotoxicity read?
**A.** -2.43% (inactive)
